Measurements published in US11746098B2, “Proteasome activity enhancing compounds” (Proteostasis Therapeutics, Inc., priority 2018, dated 2023).

Target: USP14 (Homo sapiens, UniProt P54578)
Experiment: USP14 Inhibition Assay
Assay type: biochemical
Conditions: average value from a minimum of two experimental determinations, read-out: IC50 Category
Text: The activity of the compound described herein to inhibit USP14 can be measured using previously described methodology [B. H. Lee et al. Nature 2010, 467 (9), 179, the contents of which are expressly incorporated by reference herein].
Example 6: USP14 Inhibition Assay

| IC50 | Compound |
| --- | --- |
| > 5 µM | Cc1cc(C(=O)CN2CCCCC2)c(C)n1[C@H]1CC[C@@H](C(=O)O)CC1 [Compound 46, cis-4-(2,5-Dimethyl-3-(2-(piperidin-1-yl)acetyl)-1H-pyrrol-1-yl)cyclohexanecarboxylic acid] |
| 0.5 to 5 µM | Cc1cc(C(=O)CN2CCCC2CCO)c(C)n1-c1ccc(Cl)cc1 (stereo not shown) [Compound 50, 1-(1-(4-Chlorophenyl)-2,5-dimethyl-1H-pyrrol-3-yl)-2-(2-(2-hydroxyethyl)pyrrolidin-1-yl)ethanone] |
| 0.5 to 5 µM | Cc1cc(C(=O)CN2CCC(S(C)(=O)=O)C2)c(C)n1-c1ccc(Cl)cc1 (stereo not shown) [Compound 51, 1-(1-(4-Chlorophenyl)-2,5-dimethyl-1H-pyrrol-3-yl)-2-(3-(methylsulfonyl)pyrrolidin-1-yl)ethanone] |
| 0.5 to 5 µM | Cc1cc(C(=O)CN2CCC(C(F)(F)F)CC2)c(C)n1-c1ccc(Cl)cc1 [Compound 53, 1-(1-(4-Chlorophenyl)-2,5-dimethyl-1H-pyrrol-3-yl)-2-(4-(trifluoromethyl)piperidin-1-yl)ethanone] |
| 0.5 to 5 µM | Cc1cc(C(=O)CN2CCC(O)(CN(C)C)C2)c(C)n1-c1ccc(Cl)cc1 (stereo not shown) [Compound 60, 1-(1-(4-Chlorophenyl)-2,5-dimethyl-1H-pyrrol-3-yl)-2-(3-((dimethylamino)methyl)-3-hydroxypyrrolidin-1-yl)ethanone] |
| 0.5 to 5 µM | Cc1cc(C(=O)CN2CCC(O)CC2)c(C)n1-c1ccc(OC(F)(F)F)cc1 [Compound 62, 1-(2,5-dimethyl-1-(4-(trifluoromethoxy)phenyl)-1H-pyrrol-3-yl)-2-(4-hydroxypiperidin-1-yl)ethanone] |
| 0.5 to 5 µM | COc1ccc(-n2c(C)cc(C(=O)CN3CCCCC3)c2C)cc1F [Compound 63, 1-(1-(3-Fluoro-4-methoxyphenyl)-2,5-dimethyl-1H-pyrrol-3-yl)-2-(piperidin-1-yl)ethanone] |
| 0.5 to 5 µM | Cc1cc(C(=O)CN2CCCCC2)c(C)n1C1CCCCC1 [Compound 65, 1-(1-Cyclohexyl-2,5-dimethyl-1H-pyrrol-3-yl)-2-(piperidin-1-yl)ethanone] |
| 0.5 to 5 µM | Cc1cc(C(=O)CN2CCCCC2)c(C)n1-c1ccc(C(F)(F)F)cc1 [Compound 68, 1-(2,5-Dimethyl-1-(4-(trifluoromethyl)phenyl)-1H-pyrrol-3-yl)-2-(piperidin-1-yl)ethanone] |
| 0.5 to 5 µM | Cc1cc(C(=O)CN2CCCCC2)c(C)n1-c1ccc(F)c(F)c1 [Compound 69, 1-(1-(3,4-Difluorophenyl)-2,5-dimethyl-1H-pyrrol-3-yl)-2-(piperidin-1-yl)ethanone] |
| 0.5 to 5 µM | Cc1cc(C(=O)CN2CCCCC2)c(C)n1C1CCC(F)(F)CC1 [Compound 76, 1-(1-(4,4-Difluorocyclohexyl)-2,5-dimethyl-1H-pyrrol-3-yl)-2-(piperidin-1-yl)ethanone] |
| < 0.5 µM | CCCNC(=O)COC1CCN(CC(=O)c2cc(C)n(-c3ccc(Cl)cc3)c2C)CC1 [Compound 83, 2-((1-(2-(1-(4-Chlorophenyl)-2,5-dimethyl-1H-pyrrol-3-yl)-2-oxoethyl)piperidin-4-yl)oxy)-N-propylacetamide] |
| < 0.5 µM | Cc1cc(C(=O)CN2CCCC2)c(C)n1-c1ccc(C#N)cc1 [Compound 85, 4-(2,5-Dimethyl-3-(2-(pyrrolidin-1-yl)acetyl)-1H-pyrrol-1-yl)benzonitrile] |
| < 0.5 µM | Cc1c(C(=O)CN2CCCCC2)cc(C2CC2)n1-c1ccc(Cl)cc1 [Compound 90, 1-(1-(4-Chloropheny1)-5-cyclopropyl-2-methyl-1H-pyrrol-3-yl)-2-(piperidin-1-yl)ethanone] |
| < 0.5 µM | Cc1cc(C(=O)CN2CCCC2)n(C)c1-c1ccc(Cl)cc1 [Compound 92, 1-(5-(4-Chlorophenyl)-1,4-dimethyl-1H-pyrrol-2-yl)-2-(pyrrolidin-1-yl)ethanone] |

More lines, now with the values behind:

| Compound | IC50 |
| --- | --- |
| Cc1cc(C(=O)CNC2CC2)c(C)n1-c1ccc(Cl)cc1 [Compound 48, 1-(1-(4-Chlorophenyl)-2,5-dimethyl-1H-pyrrol-3-yl)-2-(cyclopropylamino)ethanone] | 0.5 to 5 µM |
| Cc1cc(C(=O)CN2CCC(OCc3ccccc3)C2)c(C)n1-c1ccc(Cl)cc1 (stereo not shown) [Compound 49, 2-(3-(Benzyloxy)pyrrolidin-1-yl)-1-(1-(4-chlorophenyl)-2,5-dimethyl-1H-pyrrol-3-yl)ethanone] | 0.5 to 5 µM |
| Cc1cc(C(=O)CN2CC[C@H](O)C2)c(C)n1-c1ccc(Cl)cc1 [Compound 52, (S)-1-(1-(4-Chlorophenyl)-2,5-dimethyl-1H-pyrrol-3-yl)-2-(3-hydroxypyrrolidin-1-yl)ethanone] | 0.5 to 5 µM |
| CCCNC(=O)OC1CCCN(CC(=O)c2cc(C)n(-c3ccc(Cl)cc3)c2C)C1 (stereo not shown) [Compound 54, 1-(2-(1-(4-Chlorophenyl)-2,5-dimethyl-1H-pyrrol-3-yl)-2-oxoethyl)piperidin-3-yl propylcarbamate] | 0.5 to 5 µM |
| Cc1cc(C(=O)CN2CCC(N(C)C)C2)c(C)n1-c1ccc(Cl)cc1 (stereo not shown) [Compound 55, 1-(1-(4-Chlorophenyl)-2,5-dimethyl-1H-pyrrol-3-yl)-2-(3-(dimethylamino)pyrrolidin-1-yl)ethanone] | 0.5 to 5 µM |
| Cc1cc(C(=O)CN2CCCC2)c(C)n1-c1ccc(Br)c(Cl)c1 [Compound 56, 1-(1-(4-Bromo-3-chlorophenyl)-2,5-dimethyl-1H-pyrrol-3-yl)-2-(pyrrolidin-1-yl)ethanone] | 0.5 to 5 µM |
| Cc1cc(C(=O)CN2CCCCC2)c(C)n1-c1ccc(Br)c(Cl)c1 [Compound 57, 1-(1-(4-Bromo-3-chloropheny1)-2,5-dimethyl-1H-pyrrol-3-yl)-2-(piperidin-1-yl)ethanone] | 0.5 to 5 µM |
| Cc1cc(C(=O)CN2CCCCC2)c(C)n1-c1ccc(OC(F)(F)F)cc1 [Compound 58, 1-(2,5-Dimethyl-1-(4-(trifluoromethoxy)phenyl)-1H-pyrrol-3-yl)-2-(piperidin-1-yl)ethanone] | 0.5 to 5 µM |
| Cc1cc(C(=O)CN2CCC(O)CC2)c(C)n1-c1ccc(Br)c(Cl)c1 [Compound 59, 1-(1-(4-Bromo-3-chlorophenyl)-2,5-dimethyl-1H-pyrrol-3-yl)-2-(4-hydroxypiperidin-1-yl)ethanone] | 0.5 to 5 µM |
| Cc1cc(C(=O)CN2CCCC2)c(C)n1-c1ccc(OC(F)(F)F)cc1 [Compound 61, 1-(2,5-Dimethyl-1-(4-(trifluoromethoxy)phenyl)-1H-pyrrol-3-yl)-2-(pyrrolidin-1-yl)ethanone] | 0.5 to 5 µM |
| COc1ccc(-n2c(C)cc(C(=O)CN3CCC(O)CC3)c2C)cc1F [Compound 64, 1-(1-(3-Fluoro-4-methoxyphenyl)-2,5-dimethyl-1H-pyrrol-3-yl)-2-(4-hydroxypiperidin-1-yl)ethanone] | 0.5 to 5 µM |
| Cc1cc(C(=O)CNC2CCC(C)CC2)c(C)n1-c1ccc(Cl)cc1 (stereo not shown) [Compound 66, 1-(1-(4-Chlorophenyl)-2,5-dimethyl-1H-pyrrol-3-yl)-2-((4-methylcyclohexyl)amino)ethanone] | 0.5 to 5 µM |
| Cc1cc(C(=O)CNC2CCCCCC2)c(C)n1-c1ccc(Cl)cc1 [Compound 67, 1-(1-(4-Chlorophenyl)-2,5-dimethyl-1H-pyrrol-3-yl)-2-(cycloheptylamino)ethanone] | 0.5 to 5 µM |
| Cc1cc(C(=O)CN2CCC(O)CC2)c(C)n1-c1ccc(F)c(F)c1 [Compound 70, 1-(1-(3,4-Difluorophenyl)-2,5-dimethyl-1H-pyrrol-3-yl)-2-(4-hydroxypiperidin-1-yl)ethanone] | 0.5 to 5 µM |
| Cc1cc(C(=O)CC2CCCCN2)c(C)n1-c1ccc(Cl)cc1 (stereo not shown) [Compound 71, 1-(1-(4-Chlorophenyl)-2,5-dimethyl-1H-pyrrol-3-yl)-2-(piperidin-2-yl)ethanone] | 0.5 to 5 µM |
| Cc1cc(C(=O)CC2CCCCN2C)c(C)n1-c1ccc(Cl)cc1 (stereo not shown) [Compound 72, 1-(1-(4-Chlorophenyl)-2,5-dimethyl-1H-pyrrol-3-yl)-2-(1-methylpiperidin-2-yl)ethanone] | 0.5 to 5 µM |
| Cc1cc(C(=O)CN2CCC(O)CC2)c(C)n1-c1ccc(F)cc1 [Compound 73, 1-(1-(4-Fluorophenyl)-2,5-dimethyl-1H-pyrrol-3-yl)-2-(4-hydroxypiperidin-1-yl)ethanone] | 0.5 to 5 µM |
| Cc1cc(C(=O)CN2CCC(F)CC2)c(C)n1-c1ccc(F)cc1 [Compound 74, 1-(1-(4-Fluorophenyl)-2,5-dimethyl-1H-pyrrol-3-yl)-2-(4-fluoropiperidin-1-yl)ethanone] | 0.5 to 5 µM |
| Cc1cc(C(=O)CN2CCC(OCC(=O)NC3CC3)CC2)c(C)n1-c1ccc(F)cc1 [Compound 75, N-Cyclopropyl-2-((1-(2-(1-(4-fluorophenyl)-2,5-dimethyl-1H-pyrrol-3-yl)-2-oxoethyl)piperidin-4-yl)oxy)acetamide] | 0.5 to 5 µM |
| Cc1cc(C(=O)CNCCO)c(C)n1-c1ccc(C#N)cc1 [Compound 77, 4-(3-(2-((2-Hydroxyethyl)amino)acetyl)-2,5-dimethyl-1H-pyrrol-1-yl)benzonitrile] | 0.5 to 5 µM |
| CCNC(=O)COC1CCN(CC(=O)c2cc(C)n(-c3ccc(Cl)cc3)c2C)CC1 [Compound 79, 2-((1-(2-(1-(4-Chlorophenyl)-2,5-dimethyl-1H-pyrrol-3-yl)-2-oxoethyl)piperidin-4-yl)oxy)-N-ethylacetamide] | < 0.5 µM |
| Cc1cc(C(=O)CN2CCC(OCC(=O)N3CCCCC3)CC2)c(C)n1-c1ccc(Cl)cc1 [Compound 80, 1-(1-(4-Chlorophenyl)-2,5-dimethyl-1H-pyrrol-3-yl)-2-(4-(2-oxo-2-(piperidin-1-yl)ethoxy)piperidin-1-yl)ethanone] | < 0.5 µM |
| Cc1cc(C(=O)CN2CCCCC2)c(C)n1-c1ccc(C#N)cc1 [Compound 81, 4-(2,5-Dimethyl-3-(2-(piperidin-1-yl)acetyl)-1H-pyrrol-1-yl)benzonitrile] | < 0.5 µM |
| Cc1cc(C(=O)CN2CCC(OCC(=O)NC(C)(C)C)CC2)c(C)n1-c1ccc(Cl)cc1 [Compound 84, N-(tert-Butyl)-2-((1-(2-(1-(4-chlorophenyl)-2,5-dimethyl-1H-pyrrol-3-yl)-2-oxoethyl)piperidin-4-yl)oxy)acetamide] | < 0.5 µM |
| Cc1c(C(=O)CN2CCCCC2)ccn1-c1ccc(Cl)cc1 [Compound 91, 1-(1-(4-Chlorophenyl)-2-methyl-1H-pyrrol-3-yl)-2-(piperidin-1-yl)ethanone] | < 0.5 µM |
